# Measured values as given in EP4759817A1, “HETEROARYL COMPOUND, PREPARATION METHOD THEREFOR, AND USE THEREOF IN MEDICINE” (Jiangsu Hengrui Pharmaceuticals Co., Ltd., priority 2023, dated 2025).
# How the values were obtained:
# HCT116 MTAP-/- cells = assay: HCT116 MTAP-/- cell proliferation assay (CellTiter-Glo, 10 days); type: cell-based; conditions: Homo sapiens, HCT-116, 240 h, growth inhibition, CTG assay Day 10
# Description: • I. Experimental materials and instruments • 1. HCT116 cell line (Nanjing Kebai Biotechnology Co., Ltd., CBP60028) • 2. HCT116 MTAP-/- cell line (Nanjing Kebai Biotechnology Co., Ltd., CBP75002) • 3. DMSO (Sigma, D2650) • 4. McCoy's 5A medium (Gibco, 16600-082) • 5. Foetal bovine serum (FBS) (Gibco, 10091148) • 6. Phosphate buffered saline (DPBS) pH 7.4 (Gibco, 14190-144) • 7. Pen strep (PS) (Gibco, 15140-122) • 8. 0.25% Typsin-EDTA (1×) (Gibco, 25200-072) • 9. CellTiter-Glo® Luminescent Cell Viability Assay (Promega, G7572) • 10. 96-well round-bottom plate (JET, TCP002096) • 11. 96-well black clear bottom plate (Hangzhou Xinyou Biotechnology Co., Ltd., 060096) • 12. 1.2 mL 96-well deep well plate, clear, sterile, square-well, V-bottom (Titan, 02089063) • 13. 15-mL centrifuge tube (Titan) • 14. Biosafety cabinet (Thermo, 1300AII) • 15. Cell counter (Countstar, IC1000) • 16. Incubator (Thermo, I160) • 17. Centrifuge (Beckman coulter, Allegra X-12 centrifuge) • 18. PHERAstar FS microplate reader (BMG Labtech) • II. Experimental procedure • 1. Cell plating (Day 0) • a) The cell morphology was observed under a microscope to ensure confluence reached approximately 90%. • b) The cell supernatant was aspirated, the cells were washed once with PBS, and then the PBS was removed; and the cells were digested by adding an appropriate amount of trypsin, and left to stand at 37°C for 3 minutes. • c) The digestion was terminated by adding an equal volume of McCoy's 5A medium containing 10% FBS, and the cell suspension was collected and centrifuged at 300 g for 3 minutes; and the cells were resuspended in an appropriate amount of fresh medium. • d) The resuspended cell suspension was taken for counting. • e) The cell suspension was diluted to 1e4/mL using McCoy's 5A medium containing 10% FBS, and seeded at 50 µL per well, corresponding to 500 cells/well for HCT116 and 500 cells/well for HCT116 MTAP-/-. • f) The cell plate was placed in a 37°C, 5% carbon dioxide incubator and incubated overnight. • 2. Compound treatment (Day 1) • a) Each compound was serially diluted in DMSO to generate a 9-point concentration gradient (starting concentration: 10000 µM, 3-fold dilution; the highest concentration may be adjusted individually based on IC50 of different compounds); for example, in a 96-well round-bottom compound-dilution plate, 5 µL of the compound was sequentially diluted into 10 µL of DMSO. • b) Each concentration point of every compound was then diluted 250-fold into the corresponding volume of McCoy's 5A medium. • c) To each cell plate, 50 µL of the diluted compound solution as described above was added sequentially to the cell supernatant (50 µL/well). • d) The compound-treated cell plate was placed in a 37°C, 5% carbon dioxide incubator and incubated. • 3. Re-digestion, re-plating and compound treatment (Day 5) • a) After 5 days of compound treatment, the compound-containing medium was aspirated, and the cells were rinsed once with PBS (100 µL/well); and the PBS was removed immediately. • b) The cells were digested by adding 25 µL of trypsin and incubated at 37°C for 3 minutes, and then the digestion was terminated by adding 175 µL/well of McCoy's 5A medium containing 10% FBS. • c) The cells were mixed thoroughly using a pipette, and re-plated at 1 : 20; and specifically, 10 µL of the cell suspension was aspirated to a new 96-well plate (pre-filled with 40 µL of McCoy's 5A medium containing 10% FBS. • d) Compounds were prepared and added according to steps a) to c) in Section 2, with 50 µL added per well. • e) The compound-treated cell plate was placed in a 37°C, 5% carbon dioxide incubator and incubated. • 4. […]
# [1] = Pharmacokinetic evaluation in Nu/Nu mice (plasma, LC-MS/MS); type: in vivo; conditions: mouse, plasma, po, i.g., 100 mg/kg; for Vd/F: read-out: Apparent volume of distribution V/F; for AUC(0-t): read-out: Area under the curve AUC0-t; for CL/F: read-out: Clearance CL/F; for half-life: read-out: Half life T1/2 (converted); for Cmax: read-out: Plasma concentration Cmax
# Procedure: Using Nu/Nu mice as the test animals, the plasma concentrations of the example compounds at different time points were determined by LC-MS/MS following oral gavage (i.g.) administration. The pharmacokinetic behaviours of the compounds of the present disclosure in Nu/Nu mice were investigated, and their pharmacokinetic profiles were evaluated.
# Compound 1-p1, compound 2-p1, compound 8-p1 and comparative example 1.
# A total of 36 female Nu/Nu mice (supplied by Vital River Laboratory Animal Technology Co., Ltd.) were randomly divided into 4 groups.
# An appropriate amount of each test compound was weighed and dissolved in 5% DMSO+20% PEG400+70% (10% TPGS)+5% (1% HMPC K100LV) to prepare a 10 mg/mL colourless clear solution.
# The administration dosage was 100 mg/kg, and the administration volume was 10 mL/kg.
# Mice were not fasted. After oral gavage administration, blood (0.1 mL) was collected from the orbital cavity before administration, and at 0.25 h, 0.5 h, 1.0 h, 2.0 h, 4.0 h, 6.0 h, 8.0 h, 11.0 h and 24.0 h after administration. The blood was placed into EDTA-K2 anticoagulant tubes and centrifuged at 10000 rpm for 1 minute (4°C) to separate plasma. The plasma was separated within 1 h and stored at -20°C until analysis. The entire process from blood collection to centrifugation was performed in ice bath conditions.
# Determination of test compound contents in plasma of Nu/Nu mice after administration of different compounds: To 20 µL of plasma samples from each time point in Nu/Nu mice, 200 µL of acetonitrile and 25 µL of verapamil (100 ng/mL) were added. The mixture was vortex-mixed for 5 minutes and centrifuged at 4000 rpm for 15 minutes. 90 µL of water and 90 µL of the supernatant were vortex-mixed for 5 minutes. 2 µL (for compound 1-p1), 2 µL (for compound 2-p1), 1 µL (for compound 8-p1), or 0.5 µL (for comparative example 1) of the supernatant was taken for LC-MS/MS analysis receptively.
SMILES,IC50 (HCT116 MTAP-/- cells) [nM],Vd/F [1] [L/kg],AUC(0-t) [1] [ng·h/mL],CL/F [1] [mL/min/kg],half-life [1] [h],Cmax [1] [ng/mL]
"Cn1ncc(-c2ccc3c(=O)[nH]nc(CN)c3c2)c1-c1c(F)cc2c(c1C#N)O[C@H]1CC[C@H]1O2 (atropisomer, axis not shown; (M)) [Compound 1-p1, (M)-(2aS,8aR)-5-(4-(4-(aminomethyl)-1-oxo-1,2-dihydrophthalazin-6-yl)-1-methyl-1H-pyrazol-5-yl)-6-fluoro-1,2,2a,8a-tetrahydrobenzo[b]cyclobuta[e][1,4]dioxine-4-carbonitrile]",11.9,35.4,8650,189,2.2,3250
"[2H]C([2H])([2H])n1ncc(-c2ccc3c(=O)[nH]nc(CN)c3c2)c1-c1c(F)cc2c(c1C#N)O[C@H]1CC[C@H]1O2 (single isomer, unassigned) [Compound 2-p1]",10.2,23.3,7140,233,1.2,2940
"[2H]C([2H])([2H])n1ncc(-c2ccc3c(=O)[nH]nc(CN)c3c2)c1-c1c(F)cc2c(c1C#N)N1CCC[C@H]1CO2 (single isomer, unassigned) [Compound 8-p1]",16.1,23.9,7640,218,1.3,2530
